Patent publication US20250205192A1, “METHODS AND MATERIALS FOR TREATING PANCREATIC DISEASES AND DISORDERS” (MAYO FOUNDATION FOR MEDICAL EDUCATION AND RESEARCH, priority 2022, published 2025)
“Also recorded” adds a separate entry of the source.

Test system: male CD-1 mice
Experiment: Intraperitoneal GTL injection in mice, peritoneal cavity assessed for nodules, adhesions and fibrosis after 1 week
Assay type: in vivo
Description: 25% glyceryl trilinoleate (GTL) homogenous suspension in saline was prepared by heating, mixing, and sonication.
Agent 767 was dissolved in a 25% sonicated suspension of GTL in saline. This was prepared by adding […] of the 25% GTL suspension to 10 mg of 767 at room temperature. The solution was then mixed, heated gently to 37-40° C., and sonicated to ensure homogeneous emulsion.
Each experiment used 4 male CD-1 mice (35-39 grams).
Two mice were each given 0.2 mL of 25% GTL by intraperitoneal injection.
Two mice were given 0.2 mL of 767 in 25% GTL by intraperitoneal injection.
Mice were sacrificed after 1 week, and the peritoneal cavity was assessed for nodules.

Structure (SMILES)	adherence of duodenum, pancreas and spleen after GTL alone (en bloc excised organs from mice given GTL intraperitoneally)	peritoneal appearance (nodules and strands) after GTL alone (mice given 0.2 mL of 25% GTL by intraperitoneal injection, 1 week, compared with control mice)	pancreatitis abnormalities by blood urea nitrogen (BUN), glucose or albumin levels after GTL alone (mice given GTL intraperitoneally)	fibrosis of the wall of the nodules (Sirius red stain) after GTL alone (nodules from mice given GTL intraperitoneally)	nodules in the peritoneal cavity and in the vicinity of the pancreas (mice given 0.2 mL of 767 in 25% GTL by intraperitoneal injection, sacrificed after 1 week, compared with GTL only)	adhesions in the peritoneal cavity in spaces away from the pancreas (mice given 767 in 25% GTL intraperitoneally, 1 week)
CCCCC/C=C\C/C=C\CCCCCCCC(=O)OCC(COC(=O)CCCCCCC/C=C\C/C=C\CCCCC)OC(=O)CCCCCCC/C=C\C/C=C\CCCCC [GTL, glyceryl trilinoleate]	adherent and difficult to separate	had nodules and strands; also recorded: had clearly discernable nodules	did not exhibit pancreatitis abnormalities	strongly positive for fibrosis		
CCCCCCCCCCC[C@@H](C[C@@H]1OC(=O)[C@H]1CC)OC(=O)[C@H](C)NC=O [compound 767]					did not have noticeable nodules	prevented adhesions
